Data from patent US20240277829A1, “HIV-1 VACCINATION AND SAMT-247 MICROBICIDE TO PREVENT HIV-1 INFECTION” (priority 2021, published 2024).
Entries after “also recorded” stand apart in the source; their conditions may differ.

Tested on: SIVmac251
Test: Weekly intravaginal SIVmac251 challenge of vaccinated and/or SAMT-247 gel treated female macaques
Format: in vivo, Rhesus macaques
Source text: Animals. Fifty female Indian Rhesus macaques obtained from the free-range breeding colony on Morgan Island, South Carolina, were used in this study. The macaques, aged 2 to 3 years at study initiation, were negative for SIV, simian retrovirus, and STLV, and were MHC typed before being divided into 4 groups: vaccine/microbicide group (20 macaques, 3 A*01 positive, 1 B*17 positive, 1 B*08 positive); vaccine only group (18 macaques, 3 A*01 positive, 1 B*17 positive); microbicide only group (6 macaques, 1 both A*01 positive and B*17 positive) and control group (6 macaques, 1 both A*01 positive and B*17 positive). Data on 37 historical naïve controls intravaginally challenged with the same dose and lot of SIVmac251 were added to the control group to increase statistical power. […]
Immunization and Challenge. […] Up to 14 challenges were administered until the macaques became SIV positive as assessed by droplet digital PCR. […]
Statistical analysis. […] Comparisons of differences between groups in the number of challenges before viral acquisition were assessed using the log-rank (Mantel-Cox) test of the discrete-time proportional hazards model. […] Correlation analyses were performed using the non-parametric Spearman rank correlation method with exact permutation and approximate two-tailed P values calculated for the number of pairs≤17 and >17, respectively. […]

CC(=O)Sc1ccccc1C(=O)NCCC(N)=O [SAMT-247]
risk of virus acquisition compared to controls (female macaques, up to 14 weekly intravaginal SIVmac251 exposures, SAMT-247 0.8% in HEC gel 4 h before each challenge): No differences in delayed acquisition; also recorded: did not significantly decrease; also recorded: had no effect
peak virus levels, SAMT-247 only group vs controls (infected animals, peak VL at week 2): no difference
